Data as given in the kinase profiling compilation of Christmann-Franck et al. (2016).

Columns and labels:
Test in all cases: KINOMEscan competition binding
Conditions in all cases: compound 10.0 µM
[1] = test system: ABL1 (human), P00519 [H396P]
[2] = test system: ABL1 (human), P00519 [Y253F]
[3] = test system: EGFR (human), P00533 [747-751 del / S ins]
[4] = test system: EGFR (human), P00533 [752-759 del]
[5] = test system: FLT3 (human), P36888 [D835H]
[6] = test system: KIT (human), P10721 [V559D/V654A]
Sequence of KIT (human), P10721 [V559D/V654A] (P10721 whole entry V559D/V654A, looked up): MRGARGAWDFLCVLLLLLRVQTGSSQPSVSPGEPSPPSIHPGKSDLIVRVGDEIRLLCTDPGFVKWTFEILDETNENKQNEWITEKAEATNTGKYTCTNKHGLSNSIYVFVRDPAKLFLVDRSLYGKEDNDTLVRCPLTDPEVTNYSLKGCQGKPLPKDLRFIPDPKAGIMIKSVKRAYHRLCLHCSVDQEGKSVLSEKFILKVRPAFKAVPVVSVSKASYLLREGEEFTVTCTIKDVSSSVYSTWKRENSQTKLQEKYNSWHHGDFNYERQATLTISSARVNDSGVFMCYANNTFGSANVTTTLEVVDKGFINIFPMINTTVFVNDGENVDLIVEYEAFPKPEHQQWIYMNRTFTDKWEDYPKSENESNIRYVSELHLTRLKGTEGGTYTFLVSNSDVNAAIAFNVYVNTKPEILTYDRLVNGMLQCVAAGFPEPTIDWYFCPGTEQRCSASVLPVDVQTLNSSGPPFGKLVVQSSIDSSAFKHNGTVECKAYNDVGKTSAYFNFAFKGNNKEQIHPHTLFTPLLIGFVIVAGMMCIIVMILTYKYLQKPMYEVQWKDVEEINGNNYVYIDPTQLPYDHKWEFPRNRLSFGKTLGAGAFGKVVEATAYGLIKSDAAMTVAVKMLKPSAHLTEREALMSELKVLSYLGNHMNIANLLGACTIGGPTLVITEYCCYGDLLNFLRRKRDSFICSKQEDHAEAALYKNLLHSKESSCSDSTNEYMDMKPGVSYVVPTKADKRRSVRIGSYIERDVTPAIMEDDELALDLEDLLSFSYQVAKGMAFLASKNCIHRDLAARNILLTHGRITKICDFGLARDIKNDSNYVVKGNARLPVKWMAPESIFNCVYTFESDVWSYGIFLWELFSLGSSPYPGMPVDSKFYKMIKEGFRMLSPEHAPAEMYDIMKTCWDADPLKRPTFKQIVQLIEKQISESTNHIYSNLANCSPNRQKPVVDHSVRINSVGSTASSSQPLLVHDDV

[7] = test system: RET (human), P07949 [M918T]
Sequence of RET (human), P07949 [M918T] (P07949 whole entry M918T, looked up): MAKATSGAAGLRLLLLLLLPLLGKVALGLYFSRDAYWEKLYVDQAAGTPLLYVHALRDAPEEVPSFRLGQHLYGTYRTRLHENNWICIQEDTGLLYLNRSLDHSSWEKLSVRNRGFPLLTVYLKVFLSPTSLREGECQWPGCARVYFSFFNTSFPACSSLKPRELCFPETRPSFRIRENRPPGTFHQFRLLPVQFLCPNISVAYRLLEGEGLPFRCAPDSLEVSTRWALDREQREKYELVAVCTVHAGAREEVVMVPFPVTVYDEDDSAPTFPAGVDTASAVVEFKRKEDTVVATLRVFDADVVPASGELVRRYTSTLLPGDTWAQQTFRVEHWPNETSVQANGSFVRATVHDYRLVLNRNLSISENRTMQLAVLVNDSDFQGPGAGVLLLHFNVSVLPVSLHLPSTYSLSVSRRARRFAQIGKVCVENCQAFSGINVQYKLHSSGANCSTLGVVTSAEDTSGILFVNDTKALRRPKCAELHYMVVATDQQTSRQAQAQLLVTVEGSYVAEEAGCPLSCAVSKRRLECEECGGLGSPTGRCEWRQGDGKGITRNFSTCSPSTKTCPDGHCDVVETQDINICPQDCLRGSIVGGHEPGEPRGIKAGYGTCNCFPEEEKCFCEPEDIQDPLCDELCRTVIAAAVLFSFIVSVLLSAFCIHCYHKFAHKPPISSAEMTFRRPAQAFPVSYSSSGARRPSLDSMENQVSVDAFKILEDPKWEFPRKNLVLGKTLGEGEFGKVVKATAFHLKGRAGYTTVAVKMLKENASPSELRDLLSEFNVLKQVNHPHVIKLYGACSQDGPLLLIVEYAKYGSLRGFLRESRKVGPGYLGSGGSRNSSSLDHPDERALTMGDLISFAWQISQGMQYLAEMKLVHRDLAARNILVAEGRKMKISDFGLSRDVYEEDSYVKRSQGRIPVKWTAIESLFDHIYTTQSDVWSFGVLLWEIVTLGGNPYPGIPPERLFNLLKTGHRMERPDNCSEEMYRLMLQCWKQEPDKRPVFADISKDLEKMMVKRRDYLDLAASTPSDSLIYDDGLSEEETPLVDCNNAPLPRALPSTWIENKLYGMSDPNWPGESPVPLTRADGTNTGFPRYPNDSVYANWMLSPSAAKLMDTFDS

[8] = test system: RET (human), P07949 [V804M]
Sequence of RET (human), P07949 [V804M] (P07949 whole entry V804M, looked up): as the sequence (P07949 whole entry M918T, looked up) above, with V804M, T918M counted along it

[9] = test system: EGFR (human), P00533 [T790M/L858R]
[10] = test system: KIT (human), P10721 [L576P]
Sequence of KIT (human), P10721 [L576P] (P10721 whole entry L576P, looked up): as the sequence (P10721 whole entry V559D/V654A, looked up) above, with D559V, L576P, A654V counted along it

[11] = test system: MET (human), P08581 [Y1235D]
[12] = test system: EGFR (human), P00533 [T790M]
[13] = test system: FLT3 (human), P36888 [R834Q]

Row | kinase still bound, per cent of control [1] [%] | kinase still bound, per cent of control [2] [%] | kinase still bound, per cent of control [3] [%] | kinase still bound, per cent of control [4] [%] | kinase still bound, per cent of control [5] [%] | kinase still bound, per cent of control [6] [%] | kinase still bound, per cent of control [7] [%] | kinase still bound, per cent of control [8] [%] | kinase still bound, per cent of control [9] [%] | kinase still bound, per cent of control [10] [%] | kinase still bound, per cent of control [11] [%] | kinase still bound, per cent of control [12] [%] | kinase still bound, per cent of control [13] [%] | Compound
1 | 100 | 100 | 0.75 | 1.2 | 11 | 100 | 100 | 100 | – | – | – | – | – | COc1cc(N2CCC(C(N)=O)CC2)ccc1Nc1nc(N)c(Cl)c(Nc2ccccc2S(=O)(=O)C(C)C)n1
2 | 100 | 100 | 100 | 100 | 100 | 100 | 100 | 100 | 100 | 100 | 100 | – | – | CCOc1cc(N2CCC(O)CC2)ccc1Nc1ncc2c(n1)N(C)c1ccccc1C(=O)N2C
3 | 100 | 100 | 100 | 100 | 21 | 100 | 100 | 100 | 100 | 100 | – | – | – | Cn1c(=O)n(-c2ccc(C(C)(C)C#N)cc2)c2c3cc(-c4cnc5ccccc5c4)ccc3ncc21
4 | 3 | 26 | – | – | – | – | 72 | 94 | – | 51 | – | – | – | CCc1nc(-c2cccc(C)c2)c(-c2ccnc(NC(=O)c3ccccc3)c2)s1
5 | 100 | 100 | 100 | 100 | 100 | 18 | 100 | 100 | – | – | – | – | – | Cc1ccc(C(=O)Nc2cccc(C(F)(F)F)c2)cc1Nc1cncc(C(N)=O)c1
6 | 100 | 100 | 0 | 0.25 | 4 | 100 | 100 | 100 | – | – | – | – | – | C=CC(=O)Nc1cccc(Oc2nc(Nc3ccc(N4CCN(C)CC4)cc3OC)ncc2Cl)c1
7 | – | 0.1 | 95 | 98 | 8.8 | 100 | 0.6 | 1.2 | 90 | 46 | 86 | 100 | 69 | CCN1CCN(Cc2ccc(Nc3ncc4c(n3)N(C)c3ccccc3C(=O)N4C)cc2C(F)(F)F)CC1
8 | – | 0 | 77 | 74 | 5.3 | 96 | 0.55 | 0.15 | 86 | 33 | 77 | 43 | 37 | CN(C)C/C=C/C(=O)Nc1cccc(Nc2ncc3c(n2)N(C)c2ccccc2C(=O)N3C)c1
9 | 3.6 | 1.3 | 0.4 | 0.9 | 100 | 9 | 0.3 | – | – | – | – | – | – | COc1ccc(N(C(=O)Oc2cc(C(=O)Nc3cccc(C(F)(F)F)c3)ccc2C)c2ccnc(Nc3ccc(N4CCN(C)CC4)cc3)n2)c(OC)c1
10 | 100 | 100 | 100 | 100 | 100 | 100 | 100 | 100 | – | – | – | – | – | COc1cc(C(=O)NC2CCN(C)CC2)ccc1Nc1ncc2c(n1)N(C1CCCC1)C(C)CC(=O)N2C (configuration not stated)
11 | 100 | 100 | – | – | 100 | 100 | 100 | 100 | – | – | – | – | – | CC[C@@H]1C(=O)N(C)c2cnc(Nc3ccc(C(=O)NC4CCN(C)CC4)cc3OC)nc2N1C1CCCC1

Further lines, the compound ahead of its results:

Row | Compound | kinase still bound, per cent of control [1] [%] | kinase still bound, per cent of control [2] [%] | kinase still bound, per cent of control [3] [%] | kinase still bound, per cent of control [4] [%] | kinase still bound, per cent of control [5] [%] | kinase still bound, per cent of control [6] [%] | kinase still bound, per cent of control [7] [%] | kinase still bound, per cent of control [8] [%] | kinase still bound, per cent of control [9] [%] | kinase still bound, per cent of control [10] [%] | kinase still bound, per cent of control [11] [%] | kinase still bound, per cent of control [12] [%] | kinase still bound, per cent of control [13] [%]
12 | COc1cc(C)c(Sc2cnc(NC(=O)c3ccc(CNC(C)C(C)C)cc3)s2)cc1C(=O)N1CCN(C(C)=O)CC1 (configuration not stated) | 100 | 100 | 100 | 100 | 14 | 100 | 32 | 100 | – | – | – | – | –
13 | CCCS(=O)(=O)Nc1ccc(F)c(C(=O)c2c[nH]c3ncc(Cl)cc23)c1F | – | 27 | 75 | 73 | 43 | 19 | 40 | 89 | 90 | 6.4 | 100 | 48 | 100
14 | CC1=C(C(=O)Nc2cc3cn[nH]c3cc2F)C(c2ccc(C(F)(F)F)cc2)CC(=O)N1 (configuration not stated) | – | 72 | 81 | 90 | 76 | 92 | 15 | 43 | 87 | 93 | 65 | 40 | 77
15 | Cc1cc([C@@H](C)Nc2ccccc2C(=O)O)c2nc(N3CCOCC3)cc(=O)n2c1 | – | 100 | 100 | 100 | 27 | 96 | 100 | 100 | 99 | 95 | 78 | 100 | 94
16 | COc1cc(N2CCN(C)CC2)ccc1Nc1nc(N)c(C(=O)c2c(Cl)cccc2Cl)s1 | – | 98 | 91 | 89 | 99 | 94 | 100 | 100 | 100 | 100 | 100 | 100 | 100
17 | O=C(NC1CC1)c1cccc(-c2ccc3c(NC(=O)C4CC4)n[nH]c3c2)c1 | – | 60 | 74 | 72 | 47 | 90 | 71 | 84 | 100 | 51 | 74 | 100 | 67
18 | C[C@@H](Oc1cc(-n2cnc3ccc(CN4CCN(C)CC4)cc32)sc1C(N)=O)c1ccccc1C(F)(F)F | – | 69 | 100 | 100 | 10 | 100 | 100 | 100 | 78 | 54 | 98 | 54 | 20
19 | O=C1Nc2ccc(I)cc2/C1=C/c1cc(Br)c(O)c(Br)c1 | – | 81 | 50 | 35 | 40 | 5.7 | 100 | 100 | 98 | 6.6 | 72 | 65 | 100
